Data reported in patent publication US20230212180A1, “SUBSTITUTED PYRAZINE COMPOUND, PHARMACEUTICAL COMPOSITION COMPRISING SAME, AND USE THEREOF” (Sichuan Kelun-Biotech Biopharmaceutical Co., Ltd., priority 2020, published 2023).
pIC50: −log10 of the molar value.

Columns and labels:
[1] = target: T1, recombinant full-length human PTPN11 (SHP2) (Homo sapiens, UniProt Q06124); assay: Inhibition of in vitro enzyme activity of SHP2 (DiFMUP fluorescence endpoint assay); format: biochemical; details: SHP2 0.5 nM, DiFMUP 200 μM, IRS-1 0.5 μM; 60 min incubation
T1 construct: recombinant full-length human PTPN11 (SHP2), active (SignalChem); purchased SignalChem
T1 sequence (Q06124 1-593): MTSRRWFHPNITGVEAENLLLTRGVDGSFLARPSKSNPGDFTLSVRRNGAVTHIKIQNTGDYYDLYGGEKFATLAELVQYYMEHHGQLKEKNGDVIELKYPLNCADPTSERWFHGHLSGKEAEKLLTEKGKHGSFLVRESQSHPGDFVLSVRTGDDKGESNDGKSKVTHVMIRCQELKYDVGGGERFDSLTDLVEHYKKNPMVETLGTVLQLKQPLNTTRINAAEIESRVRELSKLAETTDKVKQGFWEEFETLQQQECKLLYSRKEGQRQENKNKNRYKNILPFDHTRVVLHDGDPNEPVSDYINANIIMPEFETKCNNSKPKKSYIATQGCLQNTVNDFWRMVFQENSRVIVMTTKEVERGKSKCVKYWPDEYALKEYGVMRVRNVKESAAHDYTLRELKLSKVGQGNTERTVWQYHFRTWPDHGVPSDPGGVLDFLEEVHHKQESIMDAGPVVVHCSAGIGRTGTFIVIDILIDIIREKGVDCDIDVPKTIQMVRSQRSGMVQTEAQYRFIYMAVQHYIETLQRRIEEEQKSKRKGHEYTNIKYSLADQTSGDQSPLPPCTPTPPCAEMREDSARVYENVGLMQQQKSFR
Experimental: Test Example 1: Experiment on the Inhibition of In Vitro Enzyme Activity of SHP2 (Protein Phosphatase)
phosphatase: recombinant full-length human PTPN11 (SHP2), active (SignalChem);
substrate: 6,8-difluoro-4-methylumbelliferyl phosphate (DiFMUP) (Invitrogen);
activating peptide: IRS1_pY1172(dPEG8)pY1222 (IRS1) (BPS Bioscience);
terminator: bpv(phen) (bpv) (Abcam).
SHP2 concentration: 0.5 nM;
DiFMUP concentration: 200 μM;
IRS-1 concentration: 0.5 μM;
bpv concentration: 160 μM;
buffer systems: 60 mM Hepes pH 7.2; 75 mM NaCl; 75 mM KCl; 0.05% surfactant P20; 1 mM EDTA; 5 mM DTT;
incubation duration of compound and enzyme: 60 minutes;
reaction time of enzyme and substrate: 30 minutes;
parameters for microplate reader: BMG PHERAstar fluorescence microplate reader at an excitation wavelength of 340 nm and an emission wavelength of 450 nm.
Test group: A mixture of the test compound and the phosphatase SHP2 together with the activating peptide IRS-1 were incubated in the buffer system at room temperature for 60 minutes. The substrate DiFMUP was added to initiate the reaction and incubated at room temperature for 30 minutes. Thereafter, bpv was added to terminate the reaction. The reaction plate was placed in the microplate reader, and the fluorescence intensities of the wells in the plate were measured using an endpoint assay.
Negative group: The experimental method for the negative group was the same as that for the test group, except that the test compound was substituted with 0.05% aqueous solution of DMSO.
Blank group: The experimental method for the blank group was the same as that for the test group, except that the test compound was substituted with 0.05% aqueous solution of DMSO and that SHP2 was not added.
The relative inhibitory activity was calculated for the test group at each concentration based on the following equation: inhibition rate (%)=100%−(the fluorescence intensity of the test group−the fluorescence intensity of the blank group)/(the fluorescence intensity of the negative group−the fluorescence intensity of the blank group)×100%. The half maximal inhibitory concentration (IC50) of the compound was calculated by fitting the curve according to the four-parameter logistic model.

[2] = tested on: KYSE-520 cell (human esophageal squamous cell carcinoma cell); assay: Inhibition of the proliferation activity of KYSE-520 cell (CellTiter-Glo); format: cell-based; details: 120 h, KYSE-520 cell proliferation, 5 days
Experimental: Test Example 2: Experiment on the Inhibition of the Proliferation Activity of KYSE-520 Cell (Human Esophageal Squamous Cell Carcinoma Cell)
cell: KYSE-520 (JCRB Cell Bank);
(§1) kit: CellTiter-Glo® Luminescent Cell Viability Assay Kit (Promega).
(§2) inoculation amount of cell: 1500 cells/well;
incubation conditions for compound: 37° C., 5% CO2;
(§3) incubation duration: 5 days;
(§4) detecting temperature: room temperature;
(§5) chemiluminescence detection using the BMG PHERAstar FS reader.
(§6) Cells were cultured in a medium containing 10% fetal bovine serum under the culture conditions of 37° C. and 5% CO2. An appropriate amount of cells were plated into a 96-well plate and cultured overnight in an incubator to allow the cells to adhere to the wall. The following day, the medium was removed and a complete medium containing a pre-diluted compound was added and incubated at 37° C. for 5 days. On the fifth day, the detection reagent CellTiter-Glo® was added into each well. Chemiluminescence was adopted to detect the relative luminescence units (RLUs) of the wells.
(§7) The result of a well containing cell-free medium, treated with CellTiter-Glo®, was obtained as the blank value. Cell viability (%)=(sample RLU−blank RLU)/(vehicle RLU−blank RLU)×100%, and maximum inhibition rate (%)=100%−cell viabilitymax. conc. (%). The half maximal inhibitory concentration (IC50) of the compound was calculated by fitting the curve according to the four-parameter logistic model.

[3] = tested on: NCI-H358 cell (human non-small cell lung cancer cell); assay: Inhibition of the proliferation activity of NCI-H358 cell (CellTiter-Glo); format: cell-based; details: 120 h, 5 days
Experimental: Test Example 4: Experiment on the Inhibition of the Proliferation Activity of NCI-H358 Cell (Human Non-Small Cell Lung Cancer Cell)
cell: NCI-H358 (Nanjing CoBioer);
as §1, §2
incubation conditions for compounds: 37° C., 5% CO2;
as §3, §4, §5, §6, §7

| SMILES | IC50 [1] [nM] | pIC50 [2] | pIC50 [3] |
| --- | --- | --- | --- |
| C[C@@H]1OCC2(CCN(c3cnc(Sc4ccnc(N5CC(CS(C)(=O)=O)C5)c4Cl)c(N)n3)CC2)[C@@H]1N [Example 38, (3S,4S)-8-(6-amino-5-(3-chloro-2-(3-(methylsulfonylmethyl)azetidin-1-yl)pyridin-4-ylthio)pyrazin-2-yl)-3-methyl-2-oxa-8-azaspiro[4.5]decan-4-amine] | 5.3 | – | – |
| COCC1(C)CN(c2nccc(Sc3cnc(N4CCC5(CC4)CO[C@@H](C)[C@H]5N)c(CO)n3)c2Cl)C1 [Example 33, (3-((3S,4S)-4-amino-3-methyl-2-oxa-8-azaspiro[4.5]decan-8-yl)-6-(3-chloro-2-(3-(methoxymethyl)-3-methylazetidin-1-yl)pyridin-4-ylthio)pyrazin-2-yl)methanol] | 4.1 | 7.05 | – |
| C[C@@H]1OCC2(CCN(c3ncc(Sc4ccc(N5CC(C(C)(C)O)C5)nc4Cl)nc3CO)CC2)[C@@H]1N [Example 11, 2-(1-(5-(5-((3S,4S)-4-amino-3-methyl-2-oxa-8-azaspiro[4.5]decan-8-yl)-6-(hydroxymethyl)pyrazin-2-ylthio)-6-chloropyridin-2-yl)azetidin-3-yl)propan-2-ol] | 9.3 | – | – |
| C[C@@H]1OCC2(CCN(c3ncc(Sc4ccnc(N5CC(CF)C5)c4Cl)nc3CO)CC2)[C@@H]1N [Example 16, (3-((3S,4S)-4-amino-3-methyl-2-oxa-8-azaspiro[4.5]decan-8-yl)-6-(3-chloro-2-(3-(fluoromethyl)azetidin-1-yl)pyridin-4-ylthio)pyrazin-2-yl)methanol] | 1 | 7.40 | – |
| CC(N)C1(C)CCN(c2ncc(Sc3ccnc(N4CCCC4CO)c3Cl)nc2CO)CC1 (stereo not drawn) [Example 3] | 3.48 | 5.94 | – |
| CC(C)(O)C1CN(c2nccc(Sc3cnc(N4CCC5(CC4)CCC4(CC4)[C@H]5N)c(CO)n3)c2Cl)C1 [Example 49, 2-(1-(4-(5-(4-amino-8-azadispiro[2.1.5.2]dodecan-8-yl)-6-(hydroxymethyl)pyrazin-2-ylthio)-3-chloropyridin-2-yl)azetidin-3-yl)propan-2-ol] | 2.3 | 6.57 | – |
| CC(C)(O)C1CN(c2nccc(Sc3cnc(N4CCC5(CC4)Cc4ncccc4[C@H]5N)cn3)c2Cl)C1 [Example 45, (S)-2-(1-(4-(5-(5-amino-5,7-dihydrospiro[cyclopenta[b]pyridine-6,4′-piperidin]-1′-yl)pyrazin-2-ylthio)-3-chloropyridin-2-yl)azetidin-3-yl)propan-2-ol] | 4.1 | 6.68 | – |
| C[C@@H]1OCC2(CCN(c3ncc(Sc4ccnc(N5CCC(CO)C5)c4Cl)nc3CO)CC2)[C@@H]1N (stereo partly drawn) [Example 8, (3-((3S,4S)-4-amino-3-methyl-2-oxa-8-azaspiro[4.5]decan-8-yl)-6-(3-chloro-2-(3-(hydroxymethyl)pyrrolidin-1-yl)pyridin-4-ylthio)pyrazin-2-yl)methanol] | 0.88 | 7.52 | – |
| Cc1nc(N2CCC3(CC2)CO[C@@H](C)[C@H]3N)c(CO)nc1Sc1ccnc(N2CC(C(C)(C)O)C2)c1Cl [Example 32, 2-(1-(4-(5-((3S,4S)-4-amino-3-methyl-2-oxa-8-azaspiro[4.5]decan-8-yl)-6-(hydroxymethyl)-3-methylpyrazin-2-ylthio)-3-chloropyridin-2-yl)azetidin-3-yl)propan-2-ol] | 3.7 | – | – |
| CC(C)(O)C1CN(c2nccc(Sc3cnc(N4CCC5(CC4)Oc4ncccc4[C@H]5N)c(CO)n3)c2Cl)C1 [Example 44, (R)-2-(1-(4-(5-(3-amino-3H-spiro[furo[2,3-b]pyridine-2,4′-piperidin]-1′-yl)-6-(hydroxymethyl)pyrazin-2-ylthio)-3-chloropyridin-2-yl)azetidin-3-yl)propan-2-ol] | 2.49 | 7.30 | 7.30 |
| C[C@@H]1OCC2(CCN(c3ncc(Sc4ccnc(N5CCC(CC#N)C5)c4Cl)nc3CO)CC2)[C@@H]1N (stereo partly drawn) [Example 10, 2-(1-(4-(5-((3S,4S)-4-amino-3-methyl-2-oxa-8-azaspiro[4.5]decan-8-yl)-6-(hydroxymethyl)pyrazin-2-ylthio)-3-chloropyridin-2-yl)pyrrolidin-3-yl)acetonitrile] | 1.22 | 7.40 | – |
| Cc1nc(N2CCC3(CC2)Cc2ncccc2[C@H]3N)c(CO)nc1Sc1ccnc(N2CC(C(C)(C)O)C2)c1Cl [Example 50, (S)-2-(1-(4-(5-(5-amino-5,7-dihydrospiro[cyclopenta[b]pyridine-6,4′-piperidin]-1′-yl)-6-(hydroxymethyl)-3-methylpyrazin-2-ylthio)-3-chloropyridin-2-yl)azetidin-3-yl)propan-2-ol] | 4.84 | – | – |
| CC(C)(O)C1CN(c2nccc(Sc3cnc(N4CCC5(CC4)Oc4ccc(F)cc4[C@H]5N)cn3)c2Cl)C1 [Example 41, (R)-2-(1-(4-(5-(3-amino-5-fluoro-3H-spiro[benzofuran-2,4′-piperidin]-1′-yl)pyrazin-2-ylthio)-3-chloropyridin-2-yl)azetidin-3-yl)propan-2-ol] | 8.4 | – | – |
| C[C@@H]1OCC2(CCN(c3cnc(Sc4ccnc(N5CCCC5CO)c4Cl)c(N)n3)CC2)[C@@H]1N (stereo partly drawn) [Example 37, (1-(4-(3-amino-5-((3S,4S)-4-amino-3-methyl-2-oxa-8-azaspiro[4.5]decan-8-yl)pyrazin-2-ylthio)-3-chloropyridin-2-yl)pyrrolidin-2-yl)methanol] | 2.4 | – | – |
| CC(C)(O)C1CN(c2nccc(Sc3cnc(N4CCC5(CC4)Oc4ccc(F)cc4[C@H]5N)c(CO)n3)c2Cl)C1 [Example 20, (R)-2-(1-(4-(5-(3-amino-5-fluoro-3H-spiro[benzofuran-2,4′-piperidin]-1′-yl)-6-(hydroxymethyl)pyrazin-2-ylthio)-3-chloropyridin-2-yl)azetidin-3-yl)propan-2-ol] | 6.9 | – | – |
